Test results as given in ChEMBL document CHEMBL4428076 (J Med Chem, 2016).
Calls of active or inactive are those of the source. No cut-off for these calls is given here.

How the values were obtained:
[1] = molecular target: T1, Delta-type opioid receptor (Mus musculus, UniProt P32300); assay: Antagonist activity at mouse delta opioid receptor-1 expressed in CHO cell membranes assessed as inhibition of DPDPE-induced [35S]GTPgammaS binding incubated for 60 mins by scintillation spectroscopic analysis; assay type: functional
[2] = molecular target: T2, Mu-type opioid receptor (Mus musculus, UniProt P42866); assay: Agonist activity at mouse mu opioid receptor-1 expressed in CHO cell membranes assessed as [35S]GTPgammaS binding incubated for 60 mins by scintillation spectroscopic analysis; assay type: functional
[3] = molecular target: T1, Delta-type opioid receptor; assay: Displacement of [125I]-IBNtxA from mouse delta opioid receptor-1 expressed in CHO cell membranes incubated for 90 mins
[4] = molecular target: T2, Mu-type opioid receptor; assay: Displacement of [125I]-IBNtxA from mouse mu opioid receptor-1 expressed in CHO cell membranes incubated for 90 mins
[5] = test system: Mus musculus; assay: Antinociceptive activity in sc dosed CD-1 mouse assessed as increase in reaction time measured 15 mins post dose by radiant heat tail flick assay; assay type: functional; details: CD-1, sc, 0.25 h
[6] = molecular target: T3, Kappa-type opioid receptor (Mus musculus, UniProt P33534); assay: Displacement of [125I]-IBNtxA from mouse kappa opioid receptor-1 expressed in CHO cell membranes incubated for 90 mins
[7] = molecular target: Mu-type opioid receptor (Mus musculus) (UniProt P42866); assay: Agonist activity at mouse mu opioid receptor-1 expressed in CHO cell membranes assessed as [35S]GTPgammaS binding incubated for 60 mins by scintillation spectroscopic analysis relative to DAMGO; assay type: functional
[8] = molecular target: T4, Mu-type opioid receptor (Homo sapiens, UniProt P35372); assay: Activation of mu opioid receptor-1 (unknown origin) expressed in CHO cells assessed as beta-arrestin-2 recruitment at 10 uM after 90 mins by beta-galactosidase complementation assay; assay type: cell-based; details: 1.5 h
[9] = molecular target: T3, Kappa-type opioid receptor; assay: Antagonist activity at mouse kappa opioid receptor-1 expressed in CHO cell membranes assessed as inhibition of U50,488H-induced [35S]GTPgammaS binding incubated for 60 mins by scintillation spectroscopic analysis; assay type: functional
[10] = test system: Mus musculus; assay: Antinociceptive activity in CD-1 mouse assessed as increase in reaction time at 10 ug, icv administered on day 6 after DOR1-exon3 antisense oligodeoxynucleotide injection on day 1, 3 and 5 by radiant heat tail flick assay; assay type: functional, organism-based
[11] = molecular target: T4, Mu-type opioid receptor; assay: Inhibition of DAMGO-induced beta-arrestin-2 recruitment at mu opioid receptor-1 (unknown origin) expressed in CHO cells preincubated for 30 mins followed by DAMGO addition measured after 90 mins by beta-galactosidase complementation assay; assay type: cell-based
[12] = species: Mus musculus; assay: animal or person; details: CD-1, sc, 0.5 h
Description: Antinociceptive activity in sc dosed CD-1 mouse assessed as increase in latency latency to respond with hind paw lick or shake/flutter measured 30 mins post dose by hot plate test

[13] = test system: Mus musculus; assay: Antinociceptive activity in sc dosed CD-1 mouse assessed as increase in reaction time administered twice daily at dosing intervals of 12 hrs for 5 days by radiant heat tail flick assay; assay type: functional; details: CD-1, sc
[14] = species: Mus musculus; assay: animal or person; details: CD-1, sc, 0.5 h; remark: listed apart in the source
Description: Antinociceptive activity in sc dosed CD-1 mouse assessed as increase in reaction time measured 30 mins post dose by radiant heat tail flick assay

[15] = test system: Mus musculus; assay: Antinociceptive activity in CD-1 mouse assessed as increase in reaction time at 0.75 ug, icv administered on day 6 after MOR1-exon1 antisense oligodeoxynucleotide injection on day 1, 3 and 5 by radiant heat tail flick assay; assay type: functional, organism-based
[16] = molecular target: T1, Delta-type opioid receptor; assay: Agonist activity at mouse delta opioid receptor-1 expressed in CHO cell membranes assessed as [35S]GTPgammaS binding incubated for 60 mins by scintillation spectroscopic analysis; assay type: functional
[17] = molecular target: Delta-type opioid receptor (Mus musculus) (UniProt P32300); assay: Agonist activity at mouse delta opioid receptor-1 expressed in CHO cell membranes assessed as [35S]GTPgammaS binding incubated for 60 mins by scintillation spectroscopic analysis relative to DPDPE; assay type: functional
Sequence of Delta-type opioid receptor (Mus musculus) (P32300 whole entry): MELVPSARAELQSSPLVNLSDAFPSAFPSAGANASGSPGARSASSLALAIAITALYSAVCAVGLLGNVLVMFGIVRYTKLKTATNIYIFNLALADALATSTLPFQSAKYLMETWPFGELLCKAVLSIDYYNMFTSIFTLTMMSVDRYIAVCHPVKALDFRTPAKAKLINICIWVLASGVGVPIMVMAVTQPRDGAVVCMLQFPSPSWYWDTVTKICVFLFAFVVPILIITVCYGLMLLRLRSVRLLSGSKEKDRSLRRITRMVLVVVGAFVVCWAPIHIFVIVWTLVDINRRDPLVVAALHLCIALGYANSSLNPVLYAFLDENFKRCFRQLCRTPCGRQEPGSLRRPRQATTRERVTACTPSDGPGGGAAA

Sequence of Mu-type opioid receptor (Mus musculus) (P42866 whole entry): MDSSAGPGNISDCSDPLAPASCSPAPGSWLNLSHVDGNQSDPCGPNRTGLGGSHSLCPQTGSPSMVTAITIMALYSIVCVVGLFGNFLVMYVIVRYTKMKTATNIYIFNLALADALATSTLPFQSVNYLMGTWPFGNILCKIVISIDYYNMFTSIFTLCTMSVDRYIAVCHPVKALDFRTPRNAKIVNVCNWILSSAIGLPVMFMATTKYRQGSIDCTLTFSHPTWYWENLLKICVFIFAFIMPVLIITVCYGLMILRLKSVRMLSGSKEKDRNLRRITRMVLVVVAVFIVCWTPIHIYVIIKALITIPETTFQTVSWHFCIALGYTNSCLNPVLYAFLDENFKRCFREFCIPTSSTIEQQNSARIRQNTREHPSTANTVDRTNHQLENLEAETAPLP
T2 sequence (P42866 whole entry): as above
T4 sequence (P35372 whole entry): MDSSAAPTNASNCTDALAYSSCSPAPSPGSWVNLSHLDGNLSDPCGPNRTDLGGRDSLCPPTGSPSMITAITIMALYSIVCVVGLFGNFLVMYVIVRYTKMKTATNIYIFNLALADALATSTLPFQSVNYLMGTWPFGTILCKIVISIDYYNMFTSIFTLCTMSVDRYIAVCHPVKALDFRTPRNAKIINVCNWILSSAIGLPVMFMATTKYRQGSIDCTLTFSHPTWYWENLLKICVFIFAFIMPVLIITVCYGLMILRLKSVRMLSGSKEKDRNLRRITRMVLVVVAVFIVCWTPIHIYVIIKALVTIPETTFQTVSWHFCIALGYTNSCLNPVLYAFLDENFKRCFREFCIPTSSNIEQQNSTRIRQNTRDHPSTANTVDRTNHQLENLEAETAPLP
T3 sequence (P33534 whole entry): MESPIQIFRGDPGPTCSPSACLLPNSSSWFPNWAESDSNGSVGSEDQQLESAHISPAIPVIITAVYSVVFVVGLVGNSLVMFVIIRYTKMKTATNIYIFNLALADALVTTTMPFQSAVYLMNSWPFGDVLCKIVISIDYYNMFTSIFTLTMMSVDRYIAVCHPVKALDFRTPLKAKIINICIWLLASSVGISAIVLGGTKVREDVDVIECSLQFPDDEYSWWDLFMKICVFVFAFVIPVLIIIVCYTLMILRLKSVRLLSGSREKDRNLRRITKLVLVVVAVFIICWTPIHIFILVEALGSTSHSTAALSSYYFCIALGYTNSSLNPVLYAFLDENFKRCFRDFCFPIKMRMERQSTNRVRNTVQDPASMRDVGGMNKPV
T1 sequence (P32300 whole entry): as the sequence (P32300 whole entry) above

Row | SMILES | IC50 [1] [µM] | EC50 [2] [µM] | Ki [3] [µM] | Ki [4] [µM] | ED50 [5] [mg/kg] | Ki [6] [µM] | Emax [7] [%] | Activity [8] | IC50 [9] [µM] | also measured
1 | CC[C@@H]1CN2CC[C@]3(Nc4cccc(O)c4C3=O)[C@@H]2C[C@@H]1/C(=C\OC)C(=O)OC | 0.293 | 0.002 | 0.0061 | 0.0014 | 0.18 | 0.17 | 124 | Not Active |  | 
2 | CC[C@@H]1CN2CC[C@]3(Nc4cccc(C#N)c4C3=O)[C@@H]2C[C@@H]1/C(=C\OC)C(=O)OC | 0.073 | 0.0007 | 0.0024 | 0.0005 | 0.32 | 0.047 | 122 | Not Active | 0.721 | 
3 | CC1(C)SSC(C)(C)[C@@H](NC(=O)[C@@H](N)Cc2ccc(O)cc2)C(=O)NCC(=O)N[C@@H](Cc2ccccc2)C(=O)N[C@H]1C(=O)O |  |  |  |  |  |  |  |  |  | Activity [10]: inactive
4 | CC[C@@H]1CN2CC[C@@]3(O)C(=Nc4cccc(OC)c43)[C@@H]2C[C@@H]1/C(=C\OC)C(=O)OC |  | 0.053 |  | 0.037 | 0.46 |  | 77 | Not Active | 2.52 | inhibition [11]: Dose-dependent effect
5 | CC[C@@H]1CN2CC[C@]3(Nc4cccc(OC(C)=O)c4C3=O)[C@@H]2C[C@@H]1/C(=C\OC)C(=O)OC |  | 0.0039 | 0.02 | 0.0025 | 0.38 | 0.031 | 120 |  |  | 
6 | CC[C@@H]1CN2CC[C@]3(Nc4ccccc4C3=O)[C@@H]2C[C@@H]1/C(=C\OC)C(=O)OC | 0.193 | 0.0014 | 0.0029 | 0.00046 | 0.24 | 0.019 | 116 | Not Active | 0.252 | 
7 | CC[C@@H]1CN2CC[C@]3(Nc4cccc(-c5ccoc5)c4C3=O)[C@@H]2C[C@@H]1/C(=C\OC)C(=O)OC | 0.039 | 0.0015 | 0.0015 | 0.00094 | 1.1 | 0.039 | 100 | Not Active | 0.202 | 
8 | CN1CC[C@]23c4c5ccc(O)c4O[C@H]2[C@@H](O)C=C[C@H]3[C@H]1C5 [MORPHINE] |  |  |  |  |  |  |  |  |  | ED50 [12]: 1.7 mg/kg; ED50 [13]: 12.1 mg/kg; ED50 [14]: 2 to 2.5 mg/kg; Activity [15]: inactive
9 | CC[C@@H]1CN2CC[C@@]3(C(=O)c4c(OC)cccc4N3Cc3ccccc3)[C@@H]2C[C@@H]1/C(=C\OC)C(=O)OC |  |  | 0.258 | 0.249 |  | 0.136 |  |  |  | 
10 | CC[C@@H]1CN2CC[C@]3(Nc4cccc(-c5ccccc5)c4C3=O)[C@@H]2C[C@@H]1/C(=C\OC)C(=O)OC |  | 0.0014 | 0.0008 | 0.00091 | 1 | 0.051 | 123 | Not Active | 0.171 | EC50 [16]: 0.00083 µM; Emax [17]: 89%
11 | CC[C@@H]1CN2CCc3c([nH]c4cccc(OC)c34)[C@@H]2C[C@@H]1/C(=C\OC)C(=O)OC |  |  |  |  | 166 |  | 65 | Not Active |  | 
12 | C[C@@H](NC(=O)[C@@H](N)Cc1ccc(O)cc1)C(=O)NCC(=O)N(C)[C@@H](Cc1ccccc1)C(=O)NCCO [DAMGO] |  |  |  |  |  |  |  | Active |  | 
13 | CC[C@@H]1CN2CC[C@@]3(C(=O)c4c(OC)cccc4N3C)[C@@H]2C[C@@H]1/C(=C\OC)C(=O)OC |  |  | > 1 | 0.375 |  | > 1 |  |  |  | 
